Test system: KDR
Test: Tyrosine autophosphorylation of KDRcyt mutants (antiphosphotyrosine Western blot)
Format: biochemical, human
Settings: 1 mM ATP, 37° C., 10 min; Western blot with antiphosphotyrosine antibody PY20 (FIG. 4A)
Procedure: Purified KDRcytE848 and KDRcytV848 were incubated with at concentrations of 12 ng or 120 ng, respectively, or without 1 mM ATP at 37° C. for 10 min. The reaction was stopped by the addition of an equal volume of 2× SDS-PAGE sample buffer and boiled for 5 min. Reaction products were separated by 7.5%/SDS-PAGE and analyzed by Western blot probed with the antiphosphotyrosine antibody PY20 (Transduction Laboratories; FIG. 4A), or an anti-KDR antibody (Santa Cruz Biotechnology; FIG. 4B) visualized using the ECL detection kit and quantified by scanning with a densitometer (Molecular Dynamics).

“GST-KDRcytV848: GST fusion of the human KDR cytoplasmic tyrosine kinase domain with Val at position 848 (SEQ ID NO:2)” was tested, and the autophosphorylation was “resulted in autophosphorylation”.

From patent US6841367B2, “Human receptor tyrosine kinase, KDR” (Merck & Co., Inc., priority 1997, dated 2005)
